The values that follow come from US20240299504A1, “COMPOSITIONS AND METHODS FOR TREATING ALZHEIMERS DISEASE” (priority 2023, published 2024).

Assay [1] has as its system 5×FAD mice. The experiment in a line: Y-maze test. Type of assay: in vivo, mouse. The note with it: 5×FAD female mice ~5-MO vs Veh-treated 5×FAD female. As to the method: Parathyroid hormone (human) was purchased from TOCRIS Bioscience (Cat #3011/1, Abingdon, United Kingdom). WT or 5×FAD mice (both male and female) were treated with PTH1-34 intermittently [once daily injection of hPTH1-34 (50 μg/Kg) or vehicle (0.9% sodium chloride) (as a control) by subcutaneous injection, starting at 2-MO, 5 days per week] as described previously. Mice were then subjected to behavioral tests and sacrificed for examinations of their bone and brain phenotypes at the indicated ages.
Mice (female and male) at the age of ˜5-MO were subjected to behavioral studies. The experimental procedures are described as previously. […] The total arm entries and the number of tri-ads were recorded to quantify the percentage of spontaneous alternation. For novel object recognition (NOR), which tests mouse's memory ability for a novel object, 20 min were recorded to analyze the time to explore the old object vs. the new object of each mouse. […] During test trials, one of the objects was replaced with a new object and mice were free to explore for another 20 min, and the time spent exploring the new object and the old object was recorded. The discrimination index is quantified as the novelty object preference, which is the time spent exploring the new object minus the time exploring the old object over the total exploration time.

Assay [2] deals with 5×FAD astrocytes. In words: Senescence markers in cultured astrocytes (RT-PCR, SA-β-gal staining). Type of assay: cell-based, mouse. Conditions: cultured 5×FAD astrocytes, 100 ng/ml, 24 h. As for the experimental part: Total RNA was extracted from cortex, hippocampus, or cultured astrocytes using a TRizol reagent (Invitrogen, cat #15596-026, Carlsbad, CA, USA) as previously described. Purified RNA (1-5 μg) was used for cDNA synthesis with the Revert Aid First Strand cDNA Synthesis Kit (Thermo Scientific, cat #K1621, Waltham, MA, USA). The cDNA products were subjected to subsequent quantitative PCR (qPCR) using the QuantiFast SYBR Green PCR Kit (QIA-GEN, cat #204057, Hilden, Germany) with a qPCR System (StepOne Plus). Each sample was repeated at least 3 times, and the mRNA level was normalized to GAPDH using the 2^−ΔΔCt method.
Astrocyte culture was performed according to the standard protocol with some modifications as described in previous literature. In brief, the cerebral cortex and hippocampus of postnatal day 3 (P3) female pups were dissected under a stereomicroscope and placed in ice-cold calcium- and magnesium-free HBSS (Hanks Balanced Salt Solution). The tissues were digested with 2.5% trypsin-EDTA, 3 ml for each mouse, at 37° C. for 20 min with shaking slightly every 5 min. […]
SA-β-gal staining of cultured astrocytes was performed as previously reported. […] The SA-β-gal intensity was quantified by the NIH ImageJ software.

For assay [3], the system named is 5×FAD mice. In words: Morris water maze (MWM). Type of assay: in vivo, mouse. As to the method: Parathyroid hormone (human) was purchased from TOCRIS Bioscience (Cat #3011/1, Abingdon, United Kingdom). […] Mice were then subjected to behavioral tests and sacrificed for examinations of their bone and brain phenotypes at the indicated ages. For Morris water maze (MWM), a circular water tank (diameter of 120 cm) fulfilled with water and a 10 cm platform were used. Non-toxic white powder paint was added to water to make the surface opaque to hide the escape platform. The maze was virtually divided into 4 quadrants, one of which contained the platform 1 cm below the water surface as an escape platform. Mice were trained for 5 days, four trials per day with 20 min intervals between trials and 60 s per trial to locate the hidden platform. Then mice were left on the platform for 15 s to help them remember the location. On the 6th day, the escape platform was removed and mice were placed in water at the point farthest from the platform and recorded for 60 s. The swimming track was recorded using a video tracking system, and the time spent in each platform quadrant and the number of platform crossings were quantified. All behavioral trials were recorded by use of an overhead camera and analyzed by Etho Vision software (Etho Vision, Noldus). Mice were assigned and data were quantified, in a double-blind method.

`CC[C@H](C)[C@H](NC(=O)[C@H](CCC(=O)O)NC(=O)[C@H](CO)NC(=O)[C@@H](NC(=O)[C@@H](N)CO)C(C)C)C(=O)N[C@@H](CCC(N)=O)C(=O)N[C@@H](CC(C)C)C(=O)N[C@@H](CCSC)C(=O)N[C@@H](Cc1cnc[nH]1)C(=O)N[C@@H](CC(N)=O)C(=O)N[C@@H](CC(C)C)C(=O)NCC(=O)N[C@@H](CCCCN)C(=O)N[C@@H](Cc1cnc[nH]1)C(=O)N[C@@H](CC(C)C)C(=O)N[C@@H](CC(N)=O)C(=O)N[C@@H](CO)C(=O)N[C@@H](CCSC)C(=O)N[C@@H](CCC(=O)O)C(=O)N[C@@H](CCCN=C(N)N)C(=O)N[C@H](C(=O)N[C@@H](CCC(=O)O)C(=O)N[C@@H](Cc1c[nH]c2ccccc12)C(=O)N[C@@H](CC(C)C)C(=O)N[C@@H](CCCN=C(N)N)C(=O)N[C@@H](CCCCN)C(=O)N[C@@H](CCCCN)C(=O)N[C@@H](CC(C)C)C(=O)N[C@@H](CCC(N)=O)C(=O)N[C@@H](CC(=O)O)C(=O)N[C@H](C(=O)N[C@@H](Cc1cnc[nH]1)C(=O)N[C@@H](CC(N)=O)C(=O)N[C@@H](Cc1ccccc1)C(=O)O)C(C)C)C(C)C` [PTH1-34]: the “Y maze total arm entries” value in assay [1] is “comparable arm entries to those of Veh-treated 5×FAD female mice”. Further, in assay [2], the “SA-β-gal+ astrocytes” value is listed as “attenuated” and the “p53 expression (RT-PCR)” value was “diminished”. In assay [3] (5×FAD female mice ~5-MO vs 5×FAD Veh), the “MWM, latency to reach hidden platform during training” value was “faster learning of the hidden platform during MWM tests”. In addition, the “MWM, spatial memory (time in target quadrant, target zone crossovers)” value in assay [3] (5×FAD female mice ~5-MO vs 5×FAD Veh, testing day) is listed as “better spatial memory of the platform location”. The “MWM, spatial learning and memory” value in assay [3] (5×FAD male mice ~5-MO vs Veh) is reported as “Little to no improvement”.
